Source: US6559140B2 (Abbott Laboratories, priority 2000, dated 2003)

Target: H3 receptor (Rattus norvegicus, UniProt Q9QYN8)
Assay: H3 receptor binding, (3H)-N-α-methylhistamine displacement in rat cortical membranes
Details: male Sprague-Dawley rat brain cortical membranes, 30 minutes at 25° C., Cheng-Prusoff, geometric mean values of 2-10 separate experiments
Experimental: Briefly, male Sprague-Dawley rat brain cortices were homogenized (1 g tissue/10 mL buffer) in 50 mM Tris-HCl/5 mM EDTA containing protease inhibitor cocktail (Calbiochem) using a polytron set at 20,500 rpm. Homogenates were centrifuged for 20 minutes at 40,000×g. The supernatant was decanted, and pellets were weighed. The pellet was resuspended by polytron homogenization in 40 mL 50 mM Tris-HCl/5 mM EDTA with protease inhibitors and centrifuged for 20 minutes at 40,000×g. […] Test compounds were added to the incubation mixtures prior to initiating the incubation assay by addition of the membranes. Thioperamide (3 μM) was used to determine nonspecific binding. Binding incubations were conducted for 30 minutes at 25° C. and terminated by addition of 2 mL of ice cold 50 mM Tris-HCl (H 7.7) and filtration through 0.3% polyethylenimine-soaked Unifilter plates (Packard). These filters were washed 4 additional times with 2 mL of ice-cold 50 mM Tris-HCl and dried for 1 hour. Radioactivity was determined using liquid scintillation counting techniques. Results were analyzed by Hill transformation and Ki values were determined using the Cheng-Prusoff equation.

H3 receptor, sequence (Q9QYN8 1-397 isoform Q9QYN8-3): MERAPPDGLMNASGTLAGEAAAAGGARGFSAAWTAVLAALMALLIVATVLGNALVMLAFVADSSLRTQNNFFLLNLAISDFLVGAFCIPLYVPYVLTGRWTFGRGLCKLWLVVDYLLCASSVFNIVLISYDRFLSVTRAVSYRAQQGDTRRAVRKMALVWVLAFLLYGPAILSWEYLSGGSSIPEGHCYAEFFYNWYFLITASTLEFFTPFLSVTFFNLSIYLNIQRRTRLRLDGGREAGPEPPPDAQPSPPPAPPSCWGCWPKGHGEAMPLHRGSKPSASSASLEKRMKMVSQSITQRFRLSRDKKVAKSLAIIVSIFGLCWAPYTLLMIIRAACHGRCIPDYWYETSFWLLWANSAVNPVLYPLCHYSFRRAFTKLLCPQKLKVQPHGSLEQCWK

SMILES | Ki
C[C@H](N)C(=O)N1CCN(CCCOc2ccc(C(=O)C3CC3)cc2)CC1 [Example 1, (4-(3-(4-((2S)-2-aminopropanoyl)-1-piperazinyl)propoxy)phenyl)(cyclopropyl)methanone] | 19.6 nM
CCCCCC(=O)c1ccc(OCCCN2CCN(C(=O)[C@H](N)CO)CC2)cc1 [Example 52, 1-(4-(3-(4-((2R)-2-amino-3-hydroxypropanoyl)-1-piperazinyl)propoxy)phenyl)-1-hexanone] | 8.39 nM
C[C@H](CCOc1ccc(C(=O)C2CC2)cc1)N1CCN(C(=O)[C@@H](C)NC(=O)OC(C)(C)C)CC1 [Example 61, Tert-butyl (1R)-2-(4-((1R)-3-(4-(cyclopropylcarbonyl)phenoxy)-1-methylpropyl)-1-piperazinyl)-1-methyl-2-oxoethylcarbamate] | 0.74 nM
C[C@H](CCOc1ccc(C(=O)C2CC2)cc1)N1CCN(C(=O)[C@@H](C)N)CC1 [Example 62, (4-(((3R)-3-(4-((2R)-2-aminopropanoyl)-1-piperazinyl)butyl)oxy)phenyl)(cyclopropyl)methanone] | 1.46 nM
C[C@@H](NC(=O)OC(C)(C)C)C(=O)N1CCN(CCCOc2ccc(C(=O)C3CC3)cc2)CC1 [Example 64, Tert-butyl (1R)-2-(4-(3-(4-(cyclopropylcarbonyl)phenoxy)propyl)-1-piperazinyl)-1-methyl-2-oxoethylcarbamate] | 2.07 nM
CC(C)(C)[C@@H](N)C(=O)N1CCN(CCCOc2ccc(C(=O)C3CC3)cc2)CC1 [Example 66, (4-(3-(4-((2R)-2-amino-3,3-dimethylbutanoyl)-1-piperazinyl)propoxy)phenyl)(cyclopropyl)methanone] | 12.1 nM
CC[C@@H](N)C(=O)N1CCN(CCCOc2ccc(C(=O)C3CC3)cc2)CC1 [Example 69, (4-(3-(4-((2R)-2-aminobutanoyl)-1-piperazinyl)propoxy)phenyl)(cyclopropyl)methanone] | 1.24 nM
N[C@H](COCc1ccccc1)C(=O)N1CCN(CCCOc2ccc(C(=O)C3CC3)cc2)CC1 [Example 75, (4-(3-(4-((2R)-2-amino-3-(benzyloxy)propanoyl)-1-piperazinyl)propoxy)phenyl)(cyclopropyl)methanone] | 4.67 nM
O=C(c1ccc(OCCCN2CCN(C(=O)C[C@H]3CCCN3)CC2)cc1)C1CC1 [Example 86, Cyclopropyl(4-(3-(4-((2R)-pyrrolidinylacetyl)-1-piperazinyl)propoxy)phenyl)methanone] | 4.64 nM
Cn1cnc(C[C@@H](N)C(=O)N2CCN(CCCOc3ccc(C(=O)C4CC4)cc3)CC2)c1 [Example 88, (4-(3-(4-((2R)-2-amino-3-(1-methyl-1H-imidazol-4-yl)propanoyl)-1-piperazinyl)propoxy)phenyl)(cyclopropyl)methanone] | 6.56 nM
C[C@@H](N)C(=O)N1CCN(CCCOc2ccc(-c3ccc(C#N)cc3)cc2)CC1 [Example 100] | 12.4 nM
C[C@H](N)C(=O)N1CCCN(CCCOc2ccc(C(=O)C3CC3)cc2)CC1 [Example 117, (4-(3-(4-((2S)-2-aminopropanoyl)-1,4-diazepan-1-yl)propoxy)phenyl)(cyclopropyl)methanone] | 1.07 nM
O=C(c1ccc(OCCCN2CCCN(C(=O)C[C@@H]3CCCN3)CC2)cc1)C1CC1 [Example 124, Cyclopropyl(4-(3-(4-((2S)-pyrrolidinylacetyl)-1,4-diazepan-1-yl)propoxy)phenyl)methanone] | 4.03 nM
C[C@@H](NC(=O)c1ccco1)C(=O)N1CCN(CCCOc2ccc(C(=O)C3CC3)cc2)CC1 [Example 126, N-((1R)-2-(4-(3-(4-(cyclopropylcarbonyl)phenoxy)propyl)-1-piperazinyl)-1-methyl-2-oxoethyl)-2-furamide] | 0.742 nM
C[C@@H](NC(=O)[C@H]1CCCN1)C(=O)N1CCN(CCCOc2ccc(C(=O)C3CC3)cc2)CC1 [Example 129, (2R)-N-((1R)-2-(4-(3-(4-(cyclopropylcarbonyl)phenoxy)propyl)-1-piperazinyl)-1-methyl-2-oxoethyl)-2-pyrrolidinecarboxamide] | 0.425 nM
N#Cc1ccc(-c2ccc(OCCCN3CCCN(C(=O)[C@@H](Cc4cscn4)NC(=O)c4ccco4)CC3)cc2)cc1 [Example 137, N-((1R)-2-(4-(3-((4′-cyano(1,1′-biphenyl)-4-yl)oxy)propyl)-1,4-diazepan-1-yl)-2-oxo-1-(1,3-thiazol-4-ylmethyl)ethyl)-2-furamide] | 0.208 nM
C[C@@H](N)C(=O)N1CCN(CCCOc2ccc(C(=O)C3CC3)cc2)CC1 [Example 138, (4-(3-(4-((2R)-2-aminopropanoyl)-1-piperazinyl)propoxy)phenyl)(cyclopropyl)methanone] | 0.996 nM

Now from value to compound:

Ki | SMILES
7.29 nM | CC(C)N[C@H](C)C(=O)N1CCN(CCCOc2ccc(C(=O)C3CC3)cc2)CC1 [Example 139, Cyclopropyl(4-(3-(4-((2R)-2-(isopropylamino)propanoyl)-1-piperazinyl)propoxy)phenyl)methanone]
818 nM | N#Cc1ccc(-c2ccc(OCCN3CCN(C(=O)[C@@H]4CCCN4)CC3)cc2)cc1 [Example 140, 4′-(2-(4-((2S)-pyrrolidinylcarbonyl)-1-piperazinyl)ethoxy)(1,1′-biphenyl)-4-carbonitrile]
2.34 nM | CCCc1nc(-c2ccc(OCCCN3CCCN(C(=O)[C@@H](C)NC(=O)c4ccco4)CC3)cc2F)no1 [Example 141, N-[(1R)-2-(4-{3-[3-fluoro-4-(5-propyl-1,2,4-oxadiazol-3-yl)phenoxy]propyl}-1,4-diazepan-1-yl)-1-methyl-2-oxoethyl]-2-furamide]
0.72 nM | CC(C)CCc1nc(-c2ccc(OCCCN3CCCN(C(=O)[C@@H](C)NC(=O)c4ccco4)CC3)cc2F)no1 [Example 142, N-[(1R)-2-(4-{3-[3-fluoro-4-(5-isopentyl-1,2,4-oxadiazol-3-yl)phenoxy]propyl}-1,4-diazepan-1-yl)-1-methyl-2-oxoethyl]-2-furamide]
4 nM | CC(C)OCc1nc(-c2ccc(OCCCN3CCCN(C(=O)[C@@H](C)NC(=O)c4ccco4)CC3)cc2F)no1 [Example 143, N-{(1R)-2-[4-(3-{3-fluoro-4-[5-(isopropoxymethyl)-1,2,4-oxadiazol-3-yl]phenoxy}propyl)-1,4-diazepan-1-yl]-1-methyl-2-oxoethyl}-2-furamide]
1.36 nM | C[C@@H](NC(=O)c1ccco1)C(=O)N1CCCN(CCCOc2ccc(-c3noc(C4CCCC4)n3)c(F)c2)CC1 [Example 144, N-[(1R)-2-(4-{3-[4-(5-cyclopentyl-1,2,4-oxadiazol-3-yl)-3-fluorophenoxy]propyl}-1,4-diazepan-1-yl)-1-methyl-2-oxoethyl]-2-furamide]
9.03 nM | C[C@H](NC(=O)OC(C)(C)C)c1nc(-c2ccc(OCCCN3CCCN(C(=O)[C@@H](C)NC(=O)c4ccco4)CC3)cc2F)no1 [Example 146, Tert-butyl (1S)-1-{3-[2-fluoro-4-(3-{4-[(2R)-2-(2-furoylamino)propanoyl]-1,4-diazepan-1-yl}propoxy)phenyl]-1,2,4-oxadiazol-5-yl}ethylcarbamate]
1.68 nM | C[C@@H](NC(=O)c1ccco1)C(=O)N1CCCN(CCCOc2ccc(-c3noc(-c4ccoc4)n3)c(F)c2)CC1 [Example 147, N-{(1R)-2-[4-(3-{3-fluoro-4-[5-(3-furyl)-1,2,4-oxadiazol-3-yl]phenoxy}propyl)-1,4-diazepan-1-yl]-1-methyl-2-oxoethyl}-2-furamide]
